Results on 17 molecules are retold here after patent US20250213705A1, “PSMA TARGETING LIGANDS AND METHODS OF USE” (Bright Peak Therapeutics AG, priority 2023, published 2025).

Assay [1] addresses PSMA+ cells (22rv1 human prostate carcinoma epithelial cell line) (Homo sapiens (Human), UniProt Q04609). The assay can be described thus: Cellular competition assay on PSMA+ cells (flow cytometry, competition with BPT1288), 22rv1. The assay is classed as cell-based.
Protocol: On the day of experiment, cells were harvested with Trypsin and washed with assay buffer consisting of 1×PBS supplemented with 2% FBS and stained with viability dye (Biolegend Zombie NIR) diluted 1:1000 in PBS for 20 minutes. After washing and counting, cells were seeded at 50,000 cells/well in a 96 well V bottom polypropylene plate and kept on ice. Twelve 4-fold serial dilutions of analytes were prepared in cold assay buffer and added to cell suspension.
Single-cell AlexaFluor488 fluorescence emission was measured with a flow cytometer and plotted against analyte concentration in X-axis. Half maximal inhibition concentrations (IC50) were calculated based on a variable slope and four parameter analysis using GraphPad PRISM software
The target in assay [2] is Recombinant Human PSMA/FOLH1 Protein (Homo sapiens (Human), UniProt Q04609). The assay can be described thus: Inhibition assay (Amplex Red glutamic acid/glutamate oxidase, NAAG substrate). It is filed as biochemical. Particulars: Target PSMA, average of N replicates; for IC50: PSMA 5 nM, NAAG 40 μM; for Ki: calculated based on Cheng-Prusoff equation. The protocol:
Amplex™ Red Glutamic Acid/Glutamate Oxidase Assay Kit Catalog number: A12221 (Thermofisher); Recombinant Human PSMA/FOLH1 Protein, CF (rnd systems); N-Acetyl-Asp-Glu (NAAG) (Sigma Aldrich; 96 well half area plate; Enspire plate reader.
Prepare a working solution of 100 μM Amplex® Red reagent containing 0.25 U/mL HRP, 0.08 U/mL L-glutamate oxidase, 0.5 U/mL 1-glutamate-pyruvate transaminase, 200 μM L-alanine and keep protected from light. […] Final concentration is 5 nM. Transfer 10 μl/well of the inhibitor solution previously prepared in a separate 96 wells/plate.
Pipette 20 μl/well of the working solution prepared above. Incubate the reactions for 30 min at 37° C., protected from light. Because the assay is continuous (not terminated), fluorescence may be measured at multiple time points to follow the kinetics of the reactions. Measure the fluorescence in a fluorescence microplate reader using excitation in the range of 530-560 nm and emission detection at ˜590 nm. Ec50s were determined with GraphPad Prism. Ki is calculated based on Cheng-Prusoff equation.

A further assay addresses human FOLH1 (Homo sapiens (Human), UniProt Q04609). The assay can be described thus: SPR analysis of binding kinetics to biotinylated FOLH1 (Biacore 8K). Particulars: ligand PSMA; for Kd: kinetic 1:1 binding model; for Kon: association rate; for koff: dissociation rate. The procedure: The interaction of PSMA-binding variants with human FOLH1 was measured with Surface Plasmon Resonance (SPR) technology. Biotinylated FOLH1 was captured at a concentration of 30 μg/mL onto a Streptavidin chip.
Binding kinetics of the analytes were measured with a Biacore 8K instrument in two-fold serial dilutions starting at 500 nM down to 1.95 nM in single cycle kinetic measurements. After each cycle, needles were washed with 50% DMSO. To measure the association to the FOLH1 protein, the samples were injected with a flow rate of 30 μL/min for 90 s, followed by 1200 s buffer only to detect the dissociation. The used running buffer was 1×PBS with 0.05% Tween20 and 2% DMSO. The relative response units (RU, Y-axis) are plotted against time (s, X-axis) and analyzed in a kinetic 1:1 binding model.
In a different setup, biotinylated FOLH1 was captured at a concentration of 0.8 μg/mL and the running buffer was 1×PBS with 0.05% Tween20.

Sequence of Recombinant Human PSMA/FOLH1 Protein (Q04609 whole entry): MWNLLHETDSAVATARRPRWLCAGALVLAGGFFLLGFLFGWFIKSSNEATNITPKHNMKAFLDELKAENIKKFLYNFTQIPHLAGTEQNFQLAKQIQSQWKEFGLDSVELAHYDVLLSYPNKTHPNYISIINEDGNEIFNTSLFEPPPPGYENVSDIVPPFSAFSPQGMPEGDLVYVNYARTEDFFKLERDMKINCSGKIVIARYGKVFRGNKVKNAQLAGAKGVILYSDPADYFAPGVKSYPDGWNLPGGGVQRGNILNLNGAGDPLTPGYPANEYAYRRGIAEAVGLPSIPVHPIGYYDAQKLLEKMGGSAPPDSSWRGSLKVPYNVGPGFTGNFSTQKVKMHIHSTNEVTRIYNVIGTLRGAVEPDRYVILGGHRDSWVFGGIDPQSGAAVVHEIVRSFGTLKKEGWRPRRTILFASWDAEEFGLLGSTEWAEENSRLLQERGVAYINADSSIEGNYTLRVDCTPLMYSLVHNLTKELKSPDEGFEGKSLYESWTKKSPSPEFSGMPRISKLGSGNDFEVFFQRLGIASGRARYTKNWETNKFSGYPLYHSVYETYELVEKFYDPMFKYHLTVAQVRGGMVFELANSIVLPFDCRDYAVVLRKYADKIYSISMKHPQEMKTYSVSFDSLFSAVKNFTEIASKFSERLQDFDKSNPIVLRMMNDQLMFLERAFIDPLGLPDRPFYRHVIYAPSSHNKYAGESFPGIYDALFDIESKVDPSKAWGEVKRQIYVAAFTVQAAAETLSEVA
Sequence of human FOLH1 (Q04609 whole entry): as above
Sequence of PSMA+ cells (22rv1 human prostate carcinoma epithelial cell line) (Q04609 whole entry): as above

In assay [1], `CC(=O)NCCOCCOCCOCCC(=O)NC[C@H]1CC[C@H](C(=O)N[C@@H](Cc2ccc3ccccc3c2)C(=O)NCCCC[C@H](NC(=O)N[C@@H](CCC(=O)O)C(=O)O)C(=O)O)CC1` [Compound 8] gave an IC50 of 2.65 nM. Moreover, in assay [2], the IC50 was found to be 29.3 nM and the Ki was 0.21 nM. The same molecule showed a Kd at human FOLH1 of 0.654 nM.

For `CC(=O)NCCOCCOCCOCCC(=O)NC[C@H]1CC[C@H](C(=O)N[C@@H](Cc2ccc(C(=O)O)cc2)C(=O)NCCCC[C@H](NC(=O)N[C@@H](CCC(=O)O)C(=O)O)C(=O)O)CC1` [Compound 21], in assay [2], the IC50 was found to be 201 nM and the Ki is 1.44 nM. Besides, at human FOLH1, the Kon is 183000 1.ms, the koff is 0.00194 s⁻¹ and binding was put at a Kd of 10.6 nM.

With `CC(=O)NCCOCCOCCOCCC(=O)NC[C@H]1CC[C@H](C(=O)N[C@@H](Cc2ccc3ccccc3c2)C(=O)NCCCC[C@H](NC(=O)N[C@@H](CCCC(=O)O)C(=O)O)C(=O)O)CC1` [Compound 24], in assay [2], the IC50 amounted to 3350 nM and the Ki is 24 nM. At human FOLH1, the Kon was 305000 1.ms, the koff was determined as 0.0107 s⁻¹ and the Kd came out at 35.2 nM.

As to `CC(=O)NCCOCCOCCOCCC(=O)N(CCCOc1ccc(F)cc1F)CC(=O)NC[C@H]1CC[C@H](C(=O)N[C@@H](Cc2ccc3ccccc3c2)C(=O)NCCCC[C@H](NC(=O)N[C@@H](CCC(=O)O)C(=O)O)C(=O)O)CC1` [Compound 39], in assay [2], the IC50 is 50.5 nM and the Ki was 0.361 nM. Moreover, at human FOLH1, the Kon was 223000 1.ms, the koff is 0.00024 s⁻¹ and binding was characterised by a dissociation constant (Kd) of 1.08 nM.

Turning to `CC(=O)NCCOCCOCCOCCC(=O)N[C@@H](CCCOc1ccc(F)cc1F)C(=O)NC[C@H]1CC[C@H](C(=O)N[C@@H](Cc2ccc3ccccc3c2)C(=O)NCCCC[C@H](NC(=O)N[C@@H](CCC(=O)O)C(=O)O)C(=O)O)CC1` [Compound 40], in assay [2], the concentration for half-maximal inhibition (IC50) turned out to be 155 nM and the Ki was 1.11 nM. On human FOLH1, the Kon was 153000 1.ms, the koff amounted to 0.000249 s⁻¹ and the Kd stood at 1.62 nM.

`C=CC[C@H](NC(=O)CCOCCOCCOCCNC(C)=O)C(=O)NC[C@H]1CC[C@H](C(=O)N[C@@H](Cc2ccc3ccccc3c2)C(=O)NCCCC[C@H](NC(=O)N[C@@H](CCC(=O)O)C(=O)O)C(=O)O)CC1` [Compound 41]: in assay [2], the IC50 was 88.1 nM and the Ki was 0.63 nM. Besides, on human FOLH1, the Kon is on record as 102000 1.ms; the koff was 0.000199 s⁻¹; the affinity, expressed as Kd, was 1.95 nM.

Regarding `CC(=O)NCCOCCOCCOCCC(=O)NC[C@H]1CC[C@H](C(=O)N[C@@H](Cc2ccc3ccccc3c2)C(=O)NCCCC[C@H](NC(=O)N[C@@H](CCc2n[nH]c(=O)o2)C(=O)O)C(=O)O)CC1` [Compound 48], in assay [2], the IC50 came to 10300 nM and the inhibitory constant (Ki) is 73.5 nM. Further, binding on human FOLH1 was characterised by a dissociation constant (Kd) of 1650 nM.

In the case of `CC(=O)NCCOCCOCCOCCC(=O)NC[C@H]1CC[C@H](C(=O)N[C@@H](Cc2ccc3ccccc3c2)C(=O)NCCCC[C@H](NC(=O)N[C@@H](Cc2ccco2)C(=O)O)C(=O)O)CC1` [Compound 49], in assay [2], the IC50 is 16500 nM and the Ki is 118 nM. The same molecule came in with a Kd on human FOLH1 of 3080 nM.

Consider `CC(=O)NCCOCCOCCOCCC(=O)N[C@@H](CCCOc1cc(C#N)cc(C#N)c1)C(=O)NCC(=O)N[C@@H](Cc1ccc2ccccc2c1)C(=O)NCCCC[C@H](NC(=O)N[C@@H](CCC(=O)O)C(=O)O)C(=O)O` [Compound 52], for which, in assay [2], the IC50 was 26.1 nM and the Ki was 0.187 nM. For the same molecule, on human FOLH1, the Kon is reported as 291000 1.ms, the koff stood at 0.000326 s⁻¹ and the dissociation constant (Kd) turned out to be 1.12 nM.

For `CC(=O)NCCOCCOCCOCCC(=O)N1C[C@H](NC(=O)COc2cc(C#N)cc(C#N)c2)C[C@H]1C(=O)N[C@@H](Cc1ccc2ccccc2c1)C(=O)NCCCC[C@H](NC(=O)N[C@@H](CCC(=O)O)C(=O)O)C(=O)O` [Compound 79], in assay [2], the IC50 stood at 7.79 nM and the Ki was 0.0557 nM. Further, at human FOLH1, the Kon is 137000 1.ms, the koff worked out at 0.000515 s⁻¹ and the Kd came out at 3.76 nM.

As for `CC(=O)NCCOCCOCCOCCC(=O)N(CCCCOc1cc(C#N)cc(C#N)c1)CC(=O)N[C@@H](Cc1ccc2ccccc2c1)C(=O)NCCCC[C@H](NC(=O)N[C@@H](CCC(=O)O)C(=O)O)C(=O)O` [Compound 87], in assay [2], the IC50 is 1480 nM and the Ki is 10.6 nM. On human FOLH1, the Kon is on record as 272000 1.ms, the koff is 0.000136 s⁻¹ and the Kd turned out to be 0.5 nM.

In the case of `CC(=O)NCCOCCOCCOCCC(=O)N(CCCCOc1cc(C(F)(F)F)cc(C(F)(F)F)c1)CC(=O)N[C@@H](Cc1ccc2ccccc2c1)C(=O)NCCCC[C@H](NC(=O)N[C@@H](CCC(=O)O)C(=O)O)C(=O)O` [Compound 88], in assay [2], the IC50 is 63.3 nM and the Ki is 0.452 nM. For the same molecule, on human FOLH1, the Kon is on record as 215000 1.ms, the koff turned out to be 0.000329 s⁻¹ and the Kd was 1.53 nM.

In the case of `CC(=O)NCCOCCOCCOCCC(=O)N1C[C@H](NC(=O)COc2cc(C#N)cc(C#N)c2)C[C@H]1C(=O)NCC(=O)N[C@@H](Cc1ccc2ccccc2c1)C(=O)NCCCC[C@H](NC(=O)N[C@@H](CCC(=O)O)C(=O)O)C(=O)O` [Compound 89], in assay [2], the IC50 was determined as 93.5 nM and the Ki was 0.669 nM. At human FOLH1, the Kon is 121000 1.ms, the off-rate constant (koff) was 0.000311 s⁻¹ and the Kd was 2.58 nM.

Consider `CC(=O)NCCOCCOCCOCCC(=O)N[C@@H]1C[C@@H](C(=O)NCC(=O)N[C@@H](Cc2ccc3ccccc3c2)C(=O)NCCCC[C@H](NC(=O)N[C@@H](CCC(=O)O)C(=O)O)C(=O)O)N(C(=O)COc2cc(C#N)cc(C#N)c2)C1` [Compound 90], for which, in assay [2], the IC50 came out at 87.6 nM and the Ki is 0.626 nM. Further, at human FOLH1, the Kon was 183000 1.ms, the koff stood at 0.000232 s⁻¹ and binding was put at a Kd of 1.27 nM.

As for `CC(=O)NCCOCCOCCOCCC(=O)N[C@@H](Cc1cccc(C(=O)O)c1)C(=O)NCCC(=O)N[C@@H](Cc1ccc2ccccc2c1)C(=O)NCCCC[C@H](NC(=O)N[C@@H](CCC(=O)O)C(=O)O)C(=O)O` [Compound 93], in assay [2], the IC50 amounted to 9.6 nM and the Ki is 0.0686 nM. Besides, on human FOLH1, the Kon was 149000 1.ms, the koff stood at 0.000258 s⁻¹ and the Kd was 1.73 nM.

Regarding `CC(=O)NCCOCCOCCOCCC(=O)N[C@@H](Cc1ccc(C(=O)O)cc1)C(=O)NCCC(=O)N[C@@H](Cc1ccc2ccccc2c1)C(=O)NCCCC[C@H](NC(=O)N[C@@H](CCC(=O)O)C(=O)O)C(=O)O` [Compound 95], in assay [2], the IC50 worked out at 11.5 nM and the Ki was 0.0823 nM. On human FOLH1, the Kon was 124000 1.ms, the koff stood at 0.000242 s⁻¹ and the Kd was determined as 1.95 nM.

On to `CC(=O)NCCOCCOCCOCCC(=O)N[C@@H](Cc1ccc(C(=O)O)cc1)C(=O)NCCCC(=O)N[C@@H](Cc1ccc2ccccc2c1)C(=O)NCCCC[C@H](NC(=O)N[C@@H](CCC(=O)O)C(=O)O)C(=O)O` [Compound 97], for which, in assay [2], the IC50 came out at 10.8 nM and the inhibitory constant (Ki) was 0.077 nM. Further, at human FOLH1, the Kon is listed as 90100 1.ms, the koff is 0.000328 s⁻¹ and the equilibrium dissociation constant (Kd) is 3.64 nM.
